In assay [1] the target is T1, Histone deacetylase 1 (Homo sapiens, UniProt Q13547). Description: Inhibition of HDAC1 (unknown origin).
In another assay the target is Histone deacetylase 4 (Homo sapiens, UniProt P56524). The experiment in a line: Inhibition of HDAC4 (unknown origin).
In assay [2] the target is T2, Protein deacetylase HDAC6 (Homo sapiens, UniProt Q9UBN7).
T2 sequence (Q9UBN7 whole entry): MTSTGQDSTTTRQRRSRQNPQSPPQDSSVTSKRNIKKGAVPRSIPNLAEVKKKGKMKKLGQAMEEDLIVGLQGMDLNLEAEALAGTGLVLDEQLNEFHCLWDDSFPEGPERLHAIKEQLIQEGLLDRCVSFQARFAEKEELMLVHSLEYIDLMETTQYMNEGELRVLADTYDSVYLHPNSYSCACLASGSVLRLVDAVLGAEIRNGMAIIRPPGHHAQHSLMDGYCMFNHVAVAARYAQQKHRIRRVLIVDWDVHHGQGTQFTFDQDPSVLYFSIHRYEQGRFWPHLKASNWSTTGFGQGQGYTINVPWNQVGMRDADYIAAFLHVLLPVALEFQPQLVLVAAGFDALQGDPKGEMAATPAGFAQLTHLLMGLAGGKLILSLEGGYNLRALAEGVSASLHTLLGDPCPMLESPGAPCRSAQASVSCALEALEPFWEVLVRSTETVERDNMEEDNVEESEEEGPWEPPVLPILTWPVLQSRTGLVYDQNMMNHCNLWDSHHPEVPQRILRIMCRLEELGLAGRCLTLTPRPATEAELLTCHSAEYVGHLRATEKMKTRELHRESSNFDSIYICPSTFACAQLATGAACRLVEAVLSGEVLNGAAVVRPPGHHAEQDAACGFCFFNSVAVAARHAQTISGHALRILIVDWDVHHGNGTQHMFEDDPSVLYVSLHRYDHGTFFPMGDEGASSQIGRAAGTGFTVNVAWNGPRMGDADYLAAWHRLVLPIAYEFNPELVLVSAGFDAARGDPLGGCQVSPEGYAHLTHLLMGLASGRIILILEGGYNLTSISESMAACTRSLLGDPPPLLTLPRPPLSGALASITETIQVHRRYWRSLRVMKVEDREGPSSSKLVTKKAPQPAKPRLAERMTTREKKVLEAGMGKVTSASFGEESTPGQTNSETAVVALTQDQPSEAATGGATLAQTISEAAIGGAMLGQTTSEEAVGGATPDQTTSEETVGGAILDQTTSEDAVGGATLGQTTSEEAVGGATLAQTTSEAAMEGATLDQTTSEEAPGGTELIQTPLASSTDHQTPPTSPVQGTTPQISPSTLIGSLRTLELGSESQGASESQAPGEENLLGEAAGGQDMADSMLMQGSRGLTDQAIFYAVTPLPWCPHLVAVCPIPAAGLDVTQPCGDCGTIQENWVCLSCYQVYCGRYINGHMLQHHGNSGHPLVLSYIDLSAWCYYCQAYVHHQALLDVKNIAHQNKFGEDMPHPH
The experiment in a line: Inhibition of HDAC6 (unknown origin).

Assay [3] deals with T3, Histone deacetylase 8 (Homo sapiens, UniProt Q9BY41).
T3 sequence (Q9BY41 whole entry): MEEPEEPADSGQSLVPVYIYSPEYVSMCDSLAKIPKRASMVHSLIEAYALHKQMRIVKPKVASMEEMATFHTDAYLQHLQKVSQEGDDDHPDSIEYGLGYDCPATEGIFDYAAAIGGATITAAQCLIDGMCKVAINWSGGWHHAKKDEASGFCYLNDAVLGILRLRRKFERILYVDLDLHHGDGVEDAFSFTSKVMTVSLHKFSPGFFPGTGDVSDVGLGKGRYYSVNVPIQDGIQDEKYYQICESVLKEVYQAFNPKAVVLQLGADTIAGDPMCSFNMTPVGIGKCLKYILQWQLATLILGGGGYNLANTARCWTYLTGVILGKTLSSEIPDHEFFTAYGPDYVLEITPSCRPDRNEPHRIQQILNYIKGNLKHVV
Description: Inhibition of HDAC8 (unknown origin) expressed in Escherichia coli using BML-KI-178 as substrate preincubated up to 3 hrs and measured after 35 mins by fluorescence assay.

Assay [4] concerns the target T1, Histone deacetylase 1. Description: Inhibition of recombinant human FLAG/His-tagged HDAC1 expressed in baculovirus expression system using Boc-l-Lys(Ac)-AMC as substrate preincubated up to 3 hrs and measured after 35 mins by fluorescence assay.
In a further assay the target is Histone deacetylase 2 (Homo sapiens, UniProt Q92769).
Sequence of Histone deacetylase 2 (Q92769 whole entry, the tested form may be a part): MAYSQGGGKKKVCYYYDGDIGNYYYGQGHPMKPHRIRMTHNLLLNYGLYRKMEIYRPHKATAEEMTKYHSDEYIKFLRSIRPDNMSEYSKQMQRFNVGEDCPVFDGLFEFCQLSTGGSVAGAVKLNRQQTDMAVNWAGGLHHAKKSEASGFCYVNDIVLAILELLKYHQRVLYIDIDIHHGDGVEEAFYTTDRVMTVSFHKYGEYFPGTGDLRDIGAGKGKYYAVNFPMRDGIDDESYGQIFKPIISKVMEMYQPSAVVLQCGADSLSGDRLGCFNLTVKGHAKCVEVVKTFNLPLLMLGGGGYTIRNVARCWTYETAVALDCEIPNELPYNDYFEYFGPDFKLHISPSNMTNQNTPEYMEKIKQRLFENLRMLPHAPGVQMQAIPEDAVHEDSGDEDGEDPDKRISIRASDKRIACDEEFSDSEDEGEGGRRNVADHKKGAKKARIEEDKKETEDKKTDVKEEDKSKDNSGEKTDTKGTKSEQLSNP
Assay [5] concerns the target Histone deacetylase 3/Nuclear receptor corepressor 2 (HDAC3/NCoR2) (Homo sapiens, UniProt O15379). Description: Inhibition of human recombinant full length C-terminal His-tagged HDAC3 (1 to 428 residues)/N-terminal GST-tagged NCOR2 (395 to 489 residues) expressed in insect cells using Boc-l-Lys(Ac)-AMC as substrate preincubated up to 3 hrs and measured after 35 mins by fluorescence assay.

Assay [6] addresses T3, Histone deacetylase 8. Description: Inhibition of HDAC8 in human HeLa nuclear extract using Boc-Lys(acetyl)-AMC as substrate measured after 30 mins by fluorescence assay. In kind it is cell-free.
In assay [7] the target is T2, Protein deacetylase HDAC6. Description: Inhibition of HDAC6 in human HeLa nuclear extract using Boc-Lys(acetyl)-AMC as substrate measured after 30 mins by fluorescence assay. In kind it is cell-free.
Assay [8] concerns the target T2, Protein deacetylase HDAC6. Description: Inhibition of recombinant full-length human N-terminal GST-tagged HDAC6 expressed in baculovirus infected Sf9 insect cells using fluorescent-labelled Arg-His-Lys-Lys(Ac) as substrate measured after 2 hrs by fluorescence assay.
Assay [9] concerns the target T1, Histone deacetylase 1. Description: Inhibition of HDAC1 (unknown origin) using (FAM)-labeled acetylated peptide as substrate measured after 17 hrs by fluorescence assay.

pIC50: −log10 of the molar value. A value given as a limit tells only on which side of the number the result lay.

T1 sequence (Q13547 whole entry): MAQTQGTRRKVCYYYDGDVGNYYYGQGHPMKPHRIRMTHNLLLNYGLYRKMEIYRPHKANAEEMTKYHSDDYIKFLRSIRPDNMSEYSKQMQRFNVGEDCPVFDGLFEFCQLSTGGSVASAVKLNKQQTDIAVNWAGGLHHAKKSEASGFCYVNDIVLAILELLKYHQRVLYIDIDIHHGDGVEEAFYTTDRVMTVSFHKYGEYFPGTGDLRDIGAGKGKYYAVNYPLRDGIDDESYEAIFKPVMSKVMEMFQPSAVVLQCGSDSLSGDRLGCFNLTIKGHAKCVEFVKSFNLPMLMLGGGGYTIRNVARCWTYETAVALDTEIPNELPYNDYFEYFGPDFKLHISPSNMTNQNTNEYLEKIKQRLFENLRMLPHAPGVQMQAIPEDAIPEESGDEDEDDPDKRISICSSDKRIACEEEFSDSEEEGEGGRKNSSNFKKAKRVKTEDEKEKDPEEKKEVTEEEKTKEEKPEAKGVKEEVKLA
Sequence of Histone deacetylase 3/Nuclear receptor corepressor 2 (HDAC3/NCoR2) (O15379 whole entry, the tested form may be a part): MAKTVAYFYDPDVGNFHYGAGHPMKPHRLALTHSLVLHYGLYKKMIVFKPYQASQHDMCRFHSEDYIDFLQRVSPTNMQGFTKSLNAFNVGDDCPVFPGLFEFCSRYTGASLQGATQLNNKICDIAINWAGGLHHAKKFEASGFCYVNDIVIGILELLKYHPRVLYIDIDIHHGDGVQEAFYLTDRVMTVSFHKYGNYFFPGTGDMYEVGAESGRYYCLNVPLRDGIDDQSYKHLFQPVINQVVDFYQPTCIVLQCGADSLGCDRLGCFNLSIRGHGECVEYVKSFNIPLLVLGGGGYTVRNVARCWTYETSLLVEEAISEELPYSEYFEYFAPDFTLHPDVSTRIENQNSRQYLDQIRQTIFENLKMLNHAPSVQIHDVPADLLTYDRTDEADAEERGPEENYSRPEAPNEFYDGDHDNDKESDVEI
Sequence of Histone deacetylase 3/Nuclear receptor corepressor 2 (HDAC3/NCoR2) (Q9Y618 whole entry, further chain, the tested form may be a part): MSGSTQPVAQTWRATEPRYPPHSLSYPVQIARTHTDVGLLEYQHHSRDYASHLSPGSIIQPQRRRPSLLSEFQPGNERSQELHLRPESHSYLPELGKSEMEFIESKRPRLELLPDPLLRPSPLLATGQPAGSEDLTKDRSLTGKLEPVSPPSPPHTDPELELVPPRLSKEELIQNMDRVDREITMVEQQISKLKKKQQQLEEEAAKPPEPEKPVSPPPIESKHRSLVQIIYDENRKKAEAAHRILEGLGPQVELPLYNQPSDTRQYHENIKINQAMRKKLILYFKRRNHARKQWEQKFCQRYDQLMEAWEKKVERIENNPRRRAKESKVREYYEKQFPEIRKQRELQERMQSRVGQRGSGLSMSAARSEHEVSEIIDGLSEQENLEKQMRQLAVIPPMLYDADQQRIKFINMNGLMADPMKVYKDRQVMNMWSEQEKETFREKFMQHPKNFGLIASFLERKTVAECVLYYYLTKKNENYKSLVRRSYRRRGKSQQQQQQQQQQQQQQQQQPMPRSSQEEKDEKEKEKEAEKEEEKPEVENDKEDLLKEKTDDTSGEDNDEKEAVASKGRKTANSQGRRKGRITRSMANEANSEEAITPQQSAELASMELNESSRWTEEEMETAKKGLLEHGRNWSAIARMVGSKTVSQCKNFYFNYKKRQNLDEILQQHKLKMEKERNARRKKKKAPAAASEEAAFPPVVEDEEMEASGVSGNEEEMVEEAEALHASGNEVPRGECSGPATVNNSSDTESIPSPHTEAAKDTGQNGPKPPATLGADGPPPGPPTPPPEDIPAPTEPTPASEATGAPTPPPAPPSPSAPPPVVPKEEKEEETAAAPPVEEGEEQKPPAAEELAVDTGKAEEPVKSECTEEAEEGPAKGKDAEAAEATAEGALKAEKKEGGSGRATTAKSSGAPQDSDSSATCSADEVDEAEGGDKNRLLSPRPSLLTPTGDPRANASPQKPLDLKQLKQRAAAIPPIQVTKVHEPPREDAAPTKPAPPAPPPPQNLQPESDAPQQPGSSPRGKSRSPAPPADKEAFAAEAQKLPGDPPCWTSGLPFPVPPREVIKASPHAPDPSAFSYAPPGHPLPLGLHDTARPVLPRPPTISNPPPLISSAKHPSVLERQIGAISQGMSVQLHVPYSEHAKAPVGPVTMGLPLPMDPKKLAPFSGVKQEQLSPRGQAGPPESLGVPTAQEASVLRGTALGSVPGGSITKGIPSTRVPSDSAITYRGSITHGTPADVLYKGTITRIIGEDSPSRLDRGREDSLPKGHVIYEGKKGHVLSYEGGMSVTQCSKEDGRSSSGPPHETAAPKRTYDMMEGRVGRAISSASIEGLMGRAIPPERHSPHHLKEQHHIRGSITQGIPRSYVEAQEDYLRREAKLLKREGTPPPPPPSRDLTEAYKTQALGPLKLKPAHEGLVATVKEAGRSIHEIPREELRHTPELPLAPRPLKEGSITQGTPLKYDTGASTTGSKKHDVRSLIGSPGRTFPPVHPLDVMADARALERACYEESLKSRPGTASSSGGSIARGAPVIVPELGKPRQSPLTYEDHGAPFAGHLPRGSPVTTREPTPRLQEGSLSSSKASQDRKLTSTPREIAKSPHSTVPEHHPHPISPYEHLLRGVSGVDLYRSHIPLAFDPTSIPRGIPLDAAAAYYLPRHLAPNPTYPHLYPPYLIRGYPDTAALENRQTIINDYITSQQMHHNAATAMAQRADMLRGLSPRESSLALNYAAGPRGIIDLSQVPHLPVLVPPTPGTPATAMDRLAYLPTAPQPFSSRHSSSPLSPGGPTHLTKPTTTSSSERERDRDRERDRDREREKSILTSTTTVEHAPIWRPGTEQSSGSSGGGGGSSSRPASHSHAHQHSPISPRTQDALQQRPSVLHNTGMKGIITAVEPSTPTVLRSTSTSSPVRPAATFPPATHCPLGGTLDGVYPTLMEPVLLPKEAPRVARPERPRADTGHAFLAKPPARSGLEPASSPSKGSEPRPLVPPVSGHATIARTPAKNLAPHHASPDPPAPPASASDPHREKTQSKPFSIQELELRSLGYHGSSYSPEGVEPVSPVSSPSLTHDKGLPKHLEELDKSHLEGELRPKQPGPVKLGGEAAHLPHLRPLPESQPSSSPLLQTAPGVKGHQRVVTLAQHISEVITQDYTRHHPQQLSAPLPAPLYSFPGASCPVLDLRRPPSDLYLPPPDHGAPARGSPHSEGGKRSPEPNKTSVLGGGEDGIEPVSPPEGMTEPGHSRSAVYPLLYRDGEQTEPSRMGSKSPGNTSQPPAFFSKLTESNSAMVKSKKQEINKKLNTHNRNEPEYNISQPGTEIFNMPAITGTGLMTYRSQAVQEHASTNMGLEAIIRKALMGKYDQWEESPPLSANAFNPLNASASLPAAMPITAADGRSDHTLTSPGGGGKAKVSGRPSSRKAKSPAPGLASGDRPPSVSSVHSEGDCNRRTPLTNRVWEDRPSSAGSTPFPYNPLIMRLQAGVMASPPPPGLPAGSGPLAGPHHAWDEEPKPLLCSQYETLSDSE
Sequence of Histone deacetylase 4 (P56524 whole entry): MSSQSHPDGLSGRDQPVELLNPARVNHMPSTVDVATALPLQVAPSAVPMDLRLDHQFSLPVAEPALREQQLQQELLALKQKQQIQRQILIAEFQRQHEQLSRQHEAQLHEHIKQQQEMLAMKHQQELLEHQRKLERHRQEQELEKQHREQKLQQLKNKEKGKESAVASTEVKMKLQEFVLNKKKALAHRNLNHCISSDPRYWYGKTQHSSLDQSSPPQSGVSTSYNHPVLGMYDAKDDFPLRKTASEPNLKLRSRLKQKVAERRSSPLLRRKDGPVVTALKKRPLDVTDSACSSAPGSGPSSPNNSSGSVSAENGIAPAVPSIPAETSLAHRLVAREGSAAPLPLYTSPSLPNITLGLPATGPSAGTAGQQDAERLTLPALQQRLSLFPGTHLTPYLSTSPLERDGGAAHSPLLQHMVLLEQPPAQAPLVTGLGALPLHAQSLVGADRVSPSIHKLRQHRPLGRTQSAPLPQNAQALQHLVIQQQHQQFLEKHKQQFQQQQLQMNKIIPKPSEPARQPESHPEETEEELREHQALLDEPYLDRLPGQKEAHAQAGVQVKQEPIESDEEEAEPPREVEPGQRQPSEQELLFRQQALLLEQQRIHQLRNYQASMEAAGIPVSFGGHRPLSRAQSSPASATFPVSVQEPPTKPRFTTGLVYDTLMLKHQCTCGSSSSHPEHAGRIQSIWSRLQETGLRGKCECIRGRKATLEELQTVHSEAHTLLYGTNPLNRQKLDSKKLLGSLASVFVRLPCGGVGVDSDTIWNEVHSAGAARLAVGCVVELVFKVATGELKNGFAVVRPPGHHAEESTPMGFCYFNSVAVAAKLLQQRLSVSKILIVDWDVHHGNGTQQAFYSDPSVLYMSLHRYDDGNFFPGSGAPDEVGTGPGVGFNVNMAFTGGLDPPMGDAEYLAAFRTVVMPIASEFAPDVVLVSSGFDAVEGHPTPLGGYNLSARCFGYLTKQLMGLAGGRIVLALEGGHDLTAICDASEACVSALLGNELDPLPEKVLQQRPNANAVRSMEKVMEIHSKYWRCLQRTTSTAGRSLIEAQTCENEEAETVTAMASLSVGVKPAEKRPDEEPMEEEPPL

One may read the pIC50 as the IC50 on a negative log10 scale, so that one unit is a factor of ten. Regarding `O=C(NC(CCCCCSSCCCCCC(NC(=O)OCc1ccccc1)C(=O)Nc1cccc2cccnc12)C(=O)Nc1cccc2cccnc12)OCc1ccccc1` (stereo not drawn), the pIC50 was 8.09 against Histone deacetylase 1 [1], 8.47 against Histone deacetylase 4 and 8.12 in [2].
For the compound `O=C(CCCCCCCNC(=O)c1c(-c2ccc(O)cc2)sc2cc(O)ccc12)NO`, the pIC50 at Histone deacetylase 8 [3] was 6.40; at Histone deacetylase 1 [4], 6.77; at Histone deacetylase 2 it was 6.18; in assay [5], 6.89.
Turning to `O=C(CCCCCCn1cc(-c2ccc(C(=O)c3c(-c4ccc(O)cc4)sc4cc(O)ccc34)cc2)nn1)NO`, the pIC50 was 4.52 at Histone deacetylase 8 [3], 5.99 on Histone deacetylase 1 [4], 5.74 against Histone deacetylase 2 and 6.13 in [5].
Turning to `COCCOCC(=O)SCCCCCC(NC(=O)OCc1ccccc1)C(=O)Nc1cccc2cccnc12` (stereo not drawn), the pIC50 against Histone deacetylase 1 [1] was 7.72; on Histone deacetylase 4 it was 7.74; in assay [2], 7.54.
Turning to `CC(CNC(=O)c1ccc(/C=C/C(=O)NO)cc1)Oc1no[n+]([O-])c1S(=O)(=O)c1ccccc1` (stereo not drawn), the negative logarithm of the IC50 (pIC50) is 6.38 on Histone deacetylase 8 [6] and 6.55 in assay [7].
With `O=C(/C=C/c1ccc(C(=O)NCCCOc2no[n+]([O-])c2S(=O)(=O)c2ccccc2)cc1)NO`, the results for the pIC50 (on Histone deacetylase 8 [6]; in assay [7]) were 6.34 and 6.64, respectively.
As for `CCN(CC)c1ccc(C(=O)NO)cc1`, the pIC50 in assay [8] was 5.20.
For `O=C(NC(CCCCCSSCCO)C(=O)Nc1cccc2cccnc12)OCc1ccccc1` (stereo not drawn), the values for the pIC50 (at Histone deacetylase 1 [1]; on Histone deacetylase 4; in assay [2]) were 8.31, 8.70 and 8.49, respectively.
For `O=C(CCCCCn1cc(-c2ccc(C(=O)c3c(-c4ccc(O)cc4)sc4cc(O)ccc34)cc2)nn1)NO`, the pIC50 is 4.63 on Histone deacetylase 8 [3], 6.08 on Histone deacetylase 1 [4], 4.72 against Histone deacetylase 2 and 5.24 in [5].
For `Nc1ccccc1NC(=O)CCCCCCC(=O)Nc1cccc(-c2cn(-c3ccccc3)nn2)c1`, on Histone deacetylase 1 [9], the pIC50 was below 4.52.
With `CNCCOc1no[n+]([O-])c1S(=O)(=O)c1ccccc1`, the pIC50 at Histone deacetylase 8 [6] is 6.59; in [7], 6.80.
On to `CC(=O)SCCCCCC(NC(=O)OCc1ccccc1)C(=O)Nc1cccc2cccnc12` (stereo not drawn), for which the results for the pIC50 (at Histone deacetylase 1 [1]; at Histone deacetylase 4; in assay [2]) were 7.33, 7.74 and 7.47, respectively.
With `O=C(CCCCCCNC(=O)c1c(-c2ccc(O)cc2)sc2cc(O)ccc12)NO`, the pIC50 at Histone deacetylase 8 [3] is 6.14; on Histone deacetylase 1 [4], 6.22; against Histone deacetylase 2 it was 5.61; in [5] it was 6.67.
Regarding `O=C(NO)c1ccc(N2CCCC2)cc1`, in assay [8], the pIC50 is 6.27.
Regarding `Cc1c(CN(C)C)c2ccccc2n1-c1ccc(C(=O)NO)cc1`, the pIC50 in assay [8] was 8.90.

Values taken from ChEMBL document CHEMBL4422610, “HDAC as onco target: Reviewing the synthetic approaches with SAR study of their inhibitors” (Eur J Med Chem, 2018).
